The text below walks through data of US10876003B2, “Class of stable heptamethine cyanine fluorophores and biomedical applications thereof” (priority 2014, dated 2020).

The structures appear in SMILES notation.

The nature of data set [1]: Maximum absorbance wavelength in pH 7.4 phosphate-buffered saline. The format is physicochemical. Conditions: for λmax: 2 μM in 0.1 M PBS. As for the experimental part: Table 1 includes exemplary compounds according to formula II, in which n is 2, R^1 is —CH2—, m is 2, R^2 is methyl, R^14 to R^17 are methyl, and R^5, R^6, R^8, R^10, R^11 and R^13 are hydrogen. Other substituents are as indicated. The maximum absorbance wavelength (λmax) was measured in pH 7.4 phosphate-buffered saline.
Unless stated otherwise, reactions were conducted in oven-dried glassware under an atmosphere of nitrogen or argon using anhydrous solvents (passed through activated alumina columns) All other commercially obtained reagents were used as received. […] Flash column chromatography was performed using normal phase or reverse phase on a CombiFlash® Rf 200i (Teledyne Isco Inc.). […] Data for ^1H NMR spectra are reported as follows: chemical shift (6 ppm), multiplicity, coupling constant (Hz), and integration. ^13C NMR spectra were recorded on Varian spectrometers (at 100 or 125 MHz). Data for ^13C NMR spectra are reported in terms of chemical shift. IR spectra were recorded on a JASCO FT/IR 4100 spectrometer and are reported in terms of frequency of absorption (cm^−1). High-resolution LC/MS analyses were conducted on a Thermo-Fisher LTQ-Orbitrap-XL hybrid mass spectrometer system with an Ion MAX API electrospray ion source in positive ion mode. Separations were carried out on a narrow-bore (50×2.1 mm), Zorbax Rapid-Resolution, reversed-phase C18 (3.5 μm) column with a flow rate of 250 μL/min with a 10 min, 2-90% gradient of MeCN/H2O containing 0.1% HCOOH. […] Fluorescence traces and quantum yield measurements were recorded on a PTI QuantaMaster steady-state spectrofluorimeter operated by FelixGX 4.0.3 software, with 10 nm excitation and emission slit widths, 0.1 s integration rate, and enabled emission correction.

Data set [2] in a line: Quantum yields, molar absorption coefficients, absorbance and emission spectra. As to conditions: for ε (M^−1cm^−1): Table 4 footnote: methanol, method b204: PBS, 25° C.; for λem (nm) / λmax (nm): methanol. Type of data set: physicochemical.
The conditions of data set [3]: methanol; James et al., Theranostics 2013; cited from earlier work.
The format of data set [4] is physicochemical. As to conditions: buffer, pH 7.4. As for the experimental part: Solutions of commercially available IRDye 800 CW (a phenol-substituted heptamethine cyanine available from Li-Cor Biotechnology, Lincoln, Nebr.) and compound 13 (Glut-Cy-503), 10 μM, were prepared in pH 7.4 phosphate-buffered saline and exposed to physiologically relevant concentrations of glutathione (GSH, 1 mM) at room temperature. […] Upon analysis by LCMS, signals consistent with the glutathione adduct were observed concomitant with the disappearance of the phenol (IRDye 800 CW) (FIG. 7).

Take `CCCN1/C(=C/C=C2\CCCC(/C=C/C3=[N+](CCC)c4ccccc4C3(C)C)=C2N(C)CCO)C(C)(C)c2ccccc21` [Compound 6]: in data set [1] (solvent not given), the “broad hypsochromic absorbance maximum” value worked out at 687 nm.
As for `CCCN1/C(=C/C=C2\CCCC(/C=C/C3=[N+](CCC)c4ccccc4C3(C)C)=C2OCCN(C)C(=O)OCc2ccccc2)C(C)(C)c2ccccc21` [Compound 8], in data set [2], the λex came to 774 nm, the “ε (M^−1cm^−1)” value is on record as 187,000 M^−1cm^−1, the “λem (nm)” value stood at 797 nm and the “λmax (nm)” value was determined as 774 nm. In data set [2] (measured in methanol relative to ICG), the Φf stood at 0.22. In addition, in data set [1] (pH 7.4, with 20% DMSO (v/v)), the λmax was 763 nm.
In data set [1] (pH 7.4, with 20% DMSO (v/v)), `CCCN1/C(=C/C=C2\CCCC(/C=C/C3=[N+](CCC)c4ccccc4C3(C)C)=C2OCCN(C)C(=O)OCC2c3ccccc3-c3ccccc32)C(C)(C)c2ccccc21` [Compound 9] returned a λmax of 765 nm.
Turning to `CCCN1/C(=C/C=C2\CCCC(/C=C/C3=[N+](CCC)c4ccccc4C3(C)C)=C2OCCN(C)C(=O)CCCC(=O)O)C(C)(C)c2ccccc21` [Compound 10], in data set [1] (pH 7.4, with 0.1% DMSO (v/v)), the λmax stood at 760 nm.
On to `CC1(C)C(/C=C/C=C/C=C/C=C2\N(CCCCS(=O)(=O)O)c3ccc4ccccc4c3C2(C)C)=[N+](CCCCS(=O)(=O)[O-])c2ccc3ccccc3c21` [ICG, indocyanine green, reference compound], for which, in data set [3], the Φf of standard is reported as 0.078. In data set [2], the “ε (M^−1cm^−1)” value is on record as 204,000 M^−1cm^−1, the “λem (nm)” value is recorded as 822 nm and the “λmax (nm)” value is 785 nm.
As to `CC1(C)C(=CC=C2CCCC(C=CC3=[N+](CCCCS(=O)(=O)[O-])c4ccccc4C3(C)C)=C2Cl)N(CCCCS(=O)(=O)[O-])c2ccccc21.[Na+]` [IR783], the Φf of standard in data set [3] is given as 0.084.
As for `CC1(C)C(=CC=C2CCCC(C=CC3=[N+](CCCCCC(=O)[O-])c4ccc(S(=O)(=O)[O-])cc4C3(C)C)=C2Oc2ccc(S(=O)(=O)[O-])cc2)N(CCCCS(=O)(=O)[O-])c2ccc(S(=O)(=O)[O-])cc21.[Na+].[Na+].[Na+].[Na+]` [IRDye 800 CW], the “t1/2 of degradation to the glutathione adduct” value in data set [4] turned out to be 50 min.
